Data set [1] can be described thus: Evaluation of absolute bioavailability of Alfuzosin hydrochloride following oral administration of 10 mg Alfuzosin hydrochloride tablets under fed conditions. The class given is ADME, organism-based. Particulars: human, in vivo, at 10 mg, dietary status Fed, dosed compound id 46, dosed compound name ALFUZOSIN HYDROCHLORIDE, regimen Single dose, tissue Plasma.
Data set [2] can be described thus: Evaluation of pharmacokinetic parameters for Alfuzosin hydrochloride following multiple oral or intravenous administration of Alfuzosin hydrochloride. Format: ADME, organism-based. Set-up: dose 10 mg, route oral. Particulars: human, in vivo, dosed compound id 46, dosed compound name ALFUZOSIN HYDROCHLORIDE, regimen Multiple dose, tissue Plasma.

In turn, `COc1cc2nc(N(C)CCCNC(=O)C3CCCO3)nc(N)c2cc1OC.Cl` (stereo unspecified) [ALFUZOSIN HYDROCHLORIDE] returned a bioavailability in data set [1] of 49%. The compound also showed a peak concentration (Cmax) in data set [2] (po, 10 mg, dietary status Fed) of 13.6 ng/mL. The exposure (AUC) in data set [2] (po, 10 mg, dietary status Fed, read-out: AUC(0-24)) was 194 ng·h/mL. Besides, the time of peak concentration (Tmax) in data set [2] (dietary status Fed, dose 10 mg, route oral) is 8 h. Also, the half-life in data set [2] (dose 10 mg, route oral) was 10 h. The same compound yielded a Vd in data set [2] (gender male, route iv) of 3.2 L/kg.

In general, bioavailability refers to the share of a dose that reaches the circulation, judged against a reference dose that is usually intravenous. Higher therefore signals much systemic uptake. One may read the Cmax as the maximum level reached in the sampled fluid or tissue. One may read the AUC as concentration integrated over time. The term Tmax denotes the time from dosing to the highest level. One may read the half-life as the time needed for the level to fall by half in the phase considered. A lower half-life goes with fast loss.
